The text below walks through data of ChEMBL document CHEMBL5512604, “Small molecules targeting selected histone methyltransferases (HMTs) for cancer treatment: Current progress and novel strategies” (Eur J Med Chem, 2024).

The structures appear in SMILES notation.

The target in data set [1] is von Hippel-Lindau disease tumor suppressor/Histone-lysine N-methyltransferase EZH2 (Homo sapiens, UniProt Q15910+P40337). The data set is described as follows: PROTAC activity at VHL/EZH2 in human MDA-MB-453 cells assessed as protein degradation incubated for 48 hrs by Western blot analysis. The format is cell-based. On the technique in general: In western blotting, separated proteins are transferred to a membrane and probed.
Chain of von Hippel-Lindau disease tumor suppressor/Histone-lysine N-methyltransferase EZH2 (Q15910 whole entry): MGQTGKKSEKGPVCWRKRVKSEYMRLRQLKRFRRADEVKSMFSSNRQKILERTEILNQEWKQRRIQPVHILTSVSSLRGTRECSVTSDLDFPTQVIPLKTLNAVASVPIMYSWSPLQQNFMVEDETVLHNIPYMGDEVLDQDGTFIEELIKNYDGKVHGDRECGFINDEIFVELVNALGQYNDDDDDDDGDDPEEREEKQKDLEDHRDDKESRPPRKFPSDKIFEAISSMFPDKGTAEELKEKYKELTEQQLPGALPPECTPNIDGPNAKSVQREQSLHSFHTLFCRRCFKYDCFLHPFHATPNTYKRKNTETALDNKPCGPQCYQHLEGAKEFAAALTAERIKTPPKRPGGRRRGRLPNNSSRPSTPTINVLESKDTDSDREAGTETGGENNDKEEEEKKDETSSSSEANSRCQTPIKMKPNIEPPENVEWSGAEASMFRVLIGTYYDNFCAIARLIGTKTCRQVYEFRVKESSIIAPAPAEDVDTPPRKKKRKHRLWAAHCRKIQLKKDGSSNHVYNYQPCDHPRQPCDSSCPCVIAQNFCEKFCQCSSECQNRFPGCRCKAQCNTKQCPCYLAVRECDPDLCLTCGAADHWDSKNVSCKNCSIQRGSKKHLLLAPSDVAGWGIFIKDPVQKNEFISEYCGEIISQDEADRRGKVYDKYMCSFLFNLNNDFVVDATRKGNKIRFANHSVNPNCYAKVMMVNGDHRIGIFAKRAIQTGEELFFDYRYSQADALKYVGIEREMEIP
Chain of von Hippel-Lindau disease tumor suppressor/Histone-lysine N-methyltransferase EZH2 (P40337 whole entry): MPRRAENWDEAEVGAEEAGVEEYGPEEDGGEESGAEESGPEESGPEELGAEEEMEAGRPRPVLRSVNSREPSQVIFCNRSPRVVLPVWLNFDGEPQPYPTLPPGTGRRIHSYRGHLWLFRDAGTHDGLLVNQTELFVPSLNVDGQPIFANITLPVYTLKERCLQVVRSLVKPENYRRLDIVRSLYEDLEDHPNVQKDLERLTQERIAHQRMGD

For data set [2], the target named is T1, Histone-lysine N-methyltransferase EZH1 (Homo sapiens, UniProt Q92800).
T1 sequence (Q92800 whole entry): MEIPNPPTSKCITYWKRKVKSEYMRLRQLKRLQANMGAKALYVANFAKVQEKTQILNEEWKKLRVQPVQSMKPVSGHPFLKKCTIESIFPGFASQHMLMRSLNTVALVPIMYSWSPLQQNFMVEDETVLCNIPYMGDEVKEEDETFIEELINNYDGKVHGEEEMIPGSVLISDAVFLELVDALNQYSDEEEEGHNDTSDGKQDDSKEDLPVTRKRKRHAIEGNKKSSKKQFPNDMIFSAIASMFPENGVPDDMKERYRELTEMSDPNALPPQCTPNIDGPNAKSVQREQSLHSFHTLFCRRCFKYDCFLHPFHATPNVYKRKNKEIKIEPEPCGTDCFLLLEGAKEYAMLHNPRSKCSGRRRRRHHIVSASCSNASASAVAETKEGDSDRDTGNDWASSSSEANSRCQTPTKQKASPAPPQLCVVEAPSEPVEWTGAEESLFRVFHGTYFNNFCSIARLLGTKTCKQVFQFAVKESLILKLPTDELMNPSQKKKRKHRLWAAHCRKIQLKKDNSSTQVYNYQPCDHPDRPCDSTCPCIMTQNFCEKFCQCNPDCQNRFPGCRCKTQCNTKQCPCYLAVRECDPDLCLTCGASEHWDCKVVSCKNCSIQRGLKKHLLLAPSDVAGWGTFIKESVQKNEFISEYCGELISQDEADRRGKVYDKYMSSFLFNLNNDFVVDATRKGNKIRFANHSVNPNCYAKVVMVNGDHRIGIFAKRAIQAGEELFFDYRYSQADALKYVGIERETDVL
The data set is described as follows: Displacement of [3H-SAM] from full-length EZH1 (2 to 746 residues) (unknown origin) using a core histone substrate.

Data set [3] has as its target Histone-lysine N-methyltransferase EZH2 (Homo sapiens, UniProt Q15910). Description: Displacement of [3H-SAM] from full-length EZH2 (2 to 746 residues) (unknown origin) using a core histone substrate. Background: Loss of bound radioactivity is the signal in a displacement assay; it reports binding, not function.
For data set [4], the system named is MDA-MB-453. The data set is described as follows: Antiproliferative activity against human MDA-MB-453 cells assessed as inhibition of cell viability incubated for 5 days by CCK8 assay. The format is functional, cell-based. The conditions noted are these: MDA-MB-453, 120 h. In general terms: Tetrazolium dyes change colour on reduction, which living cells bring about.

In data set [5] the target is Protein arginine N-methyltransferase 5 (Homo sapiens, UniProt O14744). The data set is described as follows: Inhibition of PRMT5 (unknown origin) by HotSpot profiling analysis.
Chain of Protein arginine N-methyltransferase 5 (O14744 whole entry): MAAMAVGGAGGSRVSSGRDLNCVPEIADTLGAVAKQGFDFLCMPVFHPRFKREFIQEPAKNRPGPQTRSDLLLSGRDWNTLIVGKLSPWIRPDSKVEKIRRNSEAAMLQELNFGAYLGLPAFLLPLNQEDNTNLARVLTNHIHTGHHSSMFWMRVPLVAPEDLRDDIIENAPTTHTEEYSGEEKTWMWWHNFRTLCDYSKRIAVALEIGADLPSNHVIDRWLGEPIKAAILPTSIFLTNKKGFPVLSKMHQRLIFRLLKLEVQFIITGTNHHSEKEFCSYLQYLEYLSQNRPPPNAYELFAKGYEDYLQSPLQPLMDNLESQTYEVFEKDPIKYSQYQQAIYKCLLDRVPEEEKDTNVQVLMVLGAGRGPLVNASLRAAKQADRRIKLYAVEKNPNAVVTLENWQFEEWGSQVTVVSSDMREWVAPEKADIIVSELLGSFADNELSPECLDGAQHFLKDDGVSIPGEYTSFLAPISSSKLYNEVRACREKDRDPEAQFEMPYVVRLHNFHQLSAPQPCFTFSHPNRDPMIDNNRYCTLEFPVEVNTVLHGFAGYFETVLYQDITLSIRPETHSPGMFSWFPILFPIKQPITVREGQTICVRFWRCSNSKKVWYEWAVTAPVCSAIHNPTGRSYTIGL
For data set [6], the system named is SU-DHL-6. The data set is described as follows: Antiproliferative activity against human SU-DHL-6 cells. The format is functional, cell-based.
For data set [7], the system named is SU-DHL-6. Description: Potency index, ratio of EPZ6438 IC50 to test compound IC50 for antiproliferative activity against human SU-DHL-6 cells. The format is functional.
The target in data set [8] is Histone deacetylase. The data set is described as follows: Inhibition of HDAC in human K562 cells using Boc-K(Ac)-AMC as substrate. The format is cell-based.
The target in data set [9] is T2, Histone-lysine N-methyltransferase EHMT2 (Homo sapiens, UniProt Q96KQ7).
T2 sequence (Q96KQ7 whole entry): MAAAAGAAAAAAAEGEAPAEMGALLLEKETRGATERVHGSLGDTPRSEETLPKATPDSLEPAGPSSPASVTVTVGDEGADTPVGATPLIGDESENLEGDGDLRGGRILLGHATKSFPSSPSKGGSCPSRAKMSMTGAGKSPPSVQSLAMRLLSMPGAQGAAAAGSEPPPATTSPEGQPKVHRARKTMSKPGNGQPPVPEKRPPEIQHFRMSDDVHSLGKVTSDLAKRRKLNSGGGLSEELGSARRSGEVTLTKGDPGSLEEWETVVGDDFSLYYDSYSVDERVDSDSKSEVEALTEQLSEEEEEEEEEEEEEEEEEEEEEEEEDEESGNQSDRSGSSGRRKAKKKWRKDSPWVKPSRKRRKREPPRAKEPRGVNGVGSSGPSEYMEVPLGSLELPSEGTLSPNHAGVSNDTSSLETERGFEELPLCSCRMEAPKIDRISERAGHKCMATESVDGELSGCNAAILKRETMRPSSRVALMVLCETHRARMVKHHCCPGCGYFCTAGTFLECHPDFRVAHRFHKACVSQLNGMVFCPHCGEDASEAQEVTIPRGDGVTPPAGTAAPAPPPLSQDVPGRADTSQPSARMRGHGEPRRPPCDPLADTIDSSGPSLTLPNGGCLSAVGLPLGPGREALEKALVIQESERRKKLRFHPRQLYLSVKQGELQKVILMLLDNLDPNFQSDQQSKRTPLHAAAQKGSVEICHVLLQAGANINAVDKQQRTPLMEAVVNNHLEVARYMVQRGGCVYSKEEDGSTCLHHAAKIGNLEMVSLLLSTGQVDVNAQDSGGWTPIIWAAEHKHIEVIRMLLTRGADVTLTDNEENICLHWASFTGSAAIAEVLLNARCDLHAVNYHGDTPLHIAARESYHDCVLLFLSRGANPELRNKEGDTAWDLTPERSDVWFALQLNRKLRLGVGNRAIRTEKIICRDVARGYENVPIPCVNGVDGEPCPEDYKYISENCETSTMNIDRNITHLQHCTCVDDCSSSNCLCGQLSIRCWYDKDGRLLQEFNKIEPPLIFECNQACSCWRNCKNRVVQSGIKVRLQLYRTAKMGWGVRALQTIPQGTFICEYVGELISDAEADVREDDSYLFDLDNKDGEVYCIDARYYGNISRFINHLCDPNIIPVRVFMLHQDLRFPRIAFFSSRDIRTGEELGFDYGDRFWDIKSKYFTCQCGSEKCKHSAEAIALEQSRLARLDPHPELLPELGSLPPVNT
Description: Inhibition of G9a in human MDA-MB-231 cells assessed as decrease in H3K9Me2 level by ICW assay. The format is cell-based.

The subject of data set [10] is MDA-MB-231. The data set is described as follows: Antiproliferative activity against human MDA-MB-231 cells assessed as inhibition of cell growth incubated for 72 hrs. The format is functional, cell-based. The conditions noted are these: MDA-MB-231, 72 h.
Data set [11] concerns MCF7. The data set is described as follows: Antiproliferative activity against human MCF7 cells assessed as inhibition of cell growth incubated for 72 hrs. The following applies: MCF7, 72 h. The format is functional, cell-based.
Data set [12] concerns A549. Description: Antiproliferative activity against human A549 cells assessed as inhibition of cell growth incubated for 72 hrs. The format is functional, cell-based. The following applies: A549, 72 h.
The target of data set [13] is Histone deacetylase. Description: Inhibition of HDAC in human HeLa cells using Boc-K(Ac)-AMC as substrate. The format is cell-based.
Data set [14] can be described thus: in vitro. The conditions noted are these: human, HEK293 cells.
In data set [15] the target is Bromodomain-containing protein 4 (Homo sapiens, UniProt O60885). The data set is described as follows: Induction of BRD4 degradation in human 231MFP cells. The format is cell-based.

Chain of Histone-lysine N-methyltransferase EZH2 (Q15910 whole entry, the tested form may be a part): as the sequence (Q15910 whole entry) above

Regarding `CCN(c1cc(-c2ccc(CN3CCN(C(=O)CCCCCCCC(=O)N[C@H](C(=O)N4C[C@H](O)C[C@H]4C(=O)NCc4ccc(-c5scnc5C)cc4)C(C)(C)C)CC3)cc2)cc(C(=O)NCc2c(C)cc(C)[nH]c2=O)c1C)C1CCOCC1`, the DC50 in [1] was 0.14 µM. Moreover, the values for the IC50 in [2], in data set [3] and in [4] were 0.0086 µM, 0.062 µM and 2.3 µM, respectively.
For `N=C(N)NCCC[C@H](N)C(=O)NCC(=O)N[C@@H](CCCN)C(=O)N[C@H](CCCNC(=N)NCCCSC[C@H]1O[C@@H](n2cnc3c(N)ncnc32)[C@H](O)[C@@H]1O)C(N)=O`, the IC50 in [5] came out at 0.00042 µM.
In data set [6], `CCN(c1cc(-c2ccc(CN3CCN(C(=O)c4cnn(CCOCCOCCOCCNC(=O)CN5CCN(C(=O)N6C(c7ccc(OC)cc7OC(C)C)=N[C@H](c7ccc(Cl)cc7)[C@@H]6c6ccc(Cl)cc6)CC5=O)n4)CC3)cc2)cc(C(=O)NCc2c(C)cc(C)[nH]c2=O)c1C)C1CCOCC1` gave an IC50 of 3.75 µM. In addition, the “Ratio IC50” value in data set [7] is 6.
Regarding `COc1cc2nc(NCCNC(=O)CCCCC(=O)NO)nc(NC3CCN(Cc4ccccc4)CC3)c2cc1OC`, the IC50 in data set [8] was determined as 5.73 µM; in data set [9], 7.14 µM; in data set [10] it was 10 µM; in data set [11], 10 µM; in [12], 10 µM; in data set [13] it was 13.8 µM. In data set [14], this compound registered an IC50 at 72 h of 19.9 µM.
As for `Cc1sc2c(c1C)C(c1ccc(Cl)cc1)=N[C@H](CC(=O)NCCCCOc1ccc(C3CC(c4ccc(Br)cc4)=NN3C(=O)CCl)cc1)c1nnc(C)n1-2` (stereo partly specified), the half-maximal degradation concentration (DC50) in [15] stood at 14 µM.
For the compound `CCN(c1cc(-c2ccc(CN3CCOCC3)cc2)cc(C(=O)NCc2c(C)cc(C)[nH]c2=O)c1C)C1CCOCC1` [TAZEMETOSTAT], the IC50 in [6] was 21.9 µM.

A word on the DC50: it is the midpoint of the concentration-degradation curve. One may read the IC50 as the concentration needed to halve the response being measured.
